From PMC12375786, “Revolutionizing cancer treatment with Halomonas Aquamarina L-Glutaminase: insights from in vitro and computational studies” (Scientific Reports, 2025)

Tested on: T1, L-GLS (L-glutaminase) of Halomonas aquamarina HBIM1
T1 construct: gene glsA
Conditions: unit printed as mM^-1 (reciprocal, probably mM meant); pH and temperature of the kinetic run not given

SMILES: NC(=O)CC[C@H](N)C(=O)O [L-glutamine]
- Km: 0.198 mM⁻¹
